# Results taken from patent US20240025919A1, “AZA-TETRACYCLIC OXAZEPINE COMPOUNDS AND USES THEREOF” (Genentech, Inc., priority 2022, published 2024).
# Legend:
# KRAS G12D = KRAS G12D (Homo sapiens (Human), UniProt P01116, G12D); assay: KRAS G12D LoEnz Biochemical Assay, BODIPY-GDP Exchange TR-FRET (SOS1-mediated nucleotide exchange); details: read-out: KRas (G12D) GDP HTRF IC50
# KRAS WT = KRAS WT (Homo sapiens (Human), UniProt P01116); assay: KRAS WT Biochemical Assay, BODIPY-GDP Exchange TR-FRET (Example 502; 0.06 nM KRAS WT, 15 nM GDP, 300 nM SOS1, 120-minute incubation); details: read-out: KRas HTRF IC50
# Chain of KRAS WT (P01116-2 other isoform, or with tags, fused parts or gaps): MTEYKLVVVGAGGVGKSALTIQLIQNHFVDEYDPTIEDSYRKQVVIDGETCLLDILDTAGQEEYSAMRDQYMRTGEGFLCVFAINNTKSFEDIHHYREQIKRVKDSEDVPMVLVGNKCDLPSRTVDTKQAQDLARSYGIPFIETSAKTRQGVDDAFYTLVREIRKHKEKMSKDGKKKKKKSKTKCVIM
# Description: Example 502: KRAS WT Biochemical Assay, BODIPY-GDP Exchange TR-FRET. Biochemical compound potencies are assessed by evaluating inhibition of SOS1-mediated nucleotide exchange in KRAS WT. In this assay, the SOS1-promoted exchange of fluorescently-labeled GDP (BOPIDY-GDP) is monitored by time-resolved fluorescence resonance energy transfer (TR-FRET). Compounds solubilized in DMSO are dispensed as concentration series into 384-well white assay plates. A preformed complex of 0.06 nM biotin-tagged recombinant human KRAS WT, 15 nM GDP and 0.06 nM terbium-labeled streptavidin (CisBIO) prepared in 10 uL/well assay buffer (20 mM HEPES, pH 7.5, 50 mM NaCl, 10 mM MgCl2, 0.01% Tween-20 and 1 mM dithiothreitol) is added and allowed to incubate for 10-minutes at room temperature. The reaction is initiated with the addition of 5 uL 300 nM recombinant human SOS1 and 300 nM BODIPY-GDP in assay buffer. After a 120-minute incubation, the fluorescence is measured with excitation at 337 nm and emission at 490 and 520 nm. The TR-FRET ratio is determined as the fluorescence at 520 nm divided by the fluorescence at 490 nm multiplied by 10,000. The results are normalized to percent inhibition based on control samples: DMSO (0% inhibition) and control compound at a concentration that inhibits completely (100% inhibition). The normalized TR-FRET results are plotted against compound concentration, and the data are fit to a 4-parameter Hill equation to determine the IC50 values.
# Chain of KRAS G12D (P01116-2 other isoform, or with tags, fused parts or gaps G12D): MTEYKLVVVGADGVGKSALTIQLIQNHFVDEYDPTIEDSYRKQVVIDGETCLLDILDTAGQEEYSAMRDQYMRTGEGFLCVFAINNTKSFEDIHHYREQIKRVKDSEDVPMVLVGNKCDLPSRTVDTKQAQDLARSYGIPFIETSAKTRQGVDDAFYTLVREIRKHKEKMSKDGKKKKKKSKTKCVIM
Structure (SMILES),IC50 (KRAS G12D),IC50 (KRAS WT)
"Cc1c(F)c(N)cc(-c2nc3c4c(nc(OC[C@@H]5CC[C@@H]6CC(C(=O)N(C)C)CCN65)nc4c2F)N2C[C@H]4CC[C@H](N4)[C@H]2[C@H](C)O3)c1C(F)(F)F (single isomer, unassigned) [133 (isomer 3)]",0.14 nM,23.3 nM
"Cc1c(F)c(N)cc(-c2nc3c4c(nc(OC[C@@H]5CC[C@H]6C[C@H](C(=O)N(C)C)CCN56)nc4c2F)N2C[C@H]4CC[C@H](N4)[C@H]2[C@H](C)O3)c1C(F)(F)F (single isomer, unassigned) [133 (isomer 4)]",0.08 nM,2.3 nM
"Cc1c(F)c(N)cc(-c2nc3c4c(nc(OC[C@]56COC[C@H]5CCN6C)nc4c2F)N2C[C@H]4CC[C@H](N4)[C@H]2[C@H](C)O3)c1C(F)(F)F (single isomer, unassigned) [134 (isomer 1)]",0.19 nM,39.4 nM
"Cc1c(F)c(N)cc(-c2nc3c4c(nc(OC[C@]56COC[C@@H]5CCN6C)nc4c2F)N2C[C@H]4CC[C@H](N4)[C@H]2[C@H](C)O3)c1C(F)(F)F (single isomer, unassigned) [134 (isomer 2)]",0.19 nM,38.1 nM
"Cc1c(F)c(N)cc(-c2nc3c4c(nc(OC[C@@]56CCCN5CCN(C)C6=O)nc4c2F)N2C[C@H]4CC[C@H](N4)[C@H]2[C@H](C)O3)c1C(F)(F)F (single isomer, unassigned) [137 (isomer 1)]",2.31 nM,283 nM
"Cc1c(F)c(N)cc(-c2nc3c4c(nc(OC[C@]56CCCN5C[C@H](F)[C@@H]6F)nc4c2F)N2C[C@H]4CC[C@H](N4)[C@H]2[C@H](C)O3)c1C(F)(F)F (single isomer, unassigned) [143 (isomer 1)]",0.22 nM,28.1 nM
"Cc1c(F)c(N)cc(-c2nc3c4c(nc(OC[C@@]5(CC(F)F)CCCN5C)nc4c2F)N2C[C@H]4CC[C@H](N4)[C@H]2[C@H](C)O3)c1C(F)(F)F (single isomer, unassigned) [150 (isomer 1)]",0.18 nM,27.5 nM
"Cc1c(F)c(N)cc(-c2nc3c4c(nc(OC[C@]5(CC(F)F)CCCN5C)nc4c2F)N2C[C@H]4CC[C@H](N4)[C@H]2[C@H](C)O3)c1C(F)(F)F (single isomer, unassigned) [150 (isomer 2)]",0.25 nM,64.5 nM
"Cc1c(F)c(N)cc(-c2nc3c4c(nc(OC[C@@H]5CC[C@H]6C[C@@H](F)CN56)nc4c2F)N2C[C@H]4CC[C@H](N4)[C@H]2[C@H](C)O3)c1C(F)(F)F (single isomer, unassigned) [152 (isomer 1)]",0.1 nM,15.7 nM
"Cc1c(F)c(N)cc(-c2nc3c4c(nc(OC[C@@H]5CC[C@@H]6C[C@@H](F)CN65)nc4c2F)N2C[C@H]4CC[C@H](N4)[C@H]2[C@H](C)O3)c1C(F)(F)F (single isomer, unassigned) [152 (isomer 2)]",3.23 nM,526 nM
"C=C1CN2CCC[C@@]2(COc2nc3c4c(nc(-c5cc(N)c(F)c(C)c5C(F)(F)F)c(F)c4n2)O[C@@H](C)[C@@H]2[C@@H]4CC[C@H](CN32)N4)C1 [Compound 57, 2-Fluoro-5-((5S,5aS,6S,9R)-1-fluoro-5-methyl-12-(((S)-2-methylenetetrahydro-1H-pyrrolizin-7a(5H)-yl)methoxy)-5a,6,7,8,9,10-hexahydro-5H-4-oxa-3,10a,11,13,14-pentaaza-6,9-methanonaphtho[1,8-ab]heptalen-2-yl)-3-methyl-4-(trifluoromethyl) aniline]",0.16 nM,0.633 nM
"Cc1c(F)c(N)cc(-c2nc3c4c(nc(OC[C@@]56CCCN5C[C@H](F)C6)nc4c2F)N2C[C@H]4CC[C@H](N4)[C@H]2[C@H](C)O3)c1C=O [Compound 59, 4-Amino-3-fluoro-6-((5S,5aS,6S,9R)-1-fluoro-12-(((2R,7aS)-2-fluorotetrahydro-1H-pyrrolizin-7a(5H)-yl)methoxy)-5-methyl-5a,6,7,8,9,10-hexahydro-5H-4-oxa-3,10a,11,13,14-pentaaza-6,9-methanonaphtho[1,8-ab]heptalen-2-yl)-2-methylbenzaldehyde]",0.31 nM,51.4 nM
"Cc1cc(N)cc(-c2nc3c4c(nc(OC[C@]56CCN5CC(F)(F)C6)nc4c2F)N2C[C@H]4CC[C@H](N4)[C@H]2[C@H](C)O3)c1C(F)(F)F [Compound 60, 3-((5S,5aS,6S,9R)-12-(((R)-3,3-Difluoro-1-azabicyclo[3.2.0]heptan-5-yl)methoxy)-1-fluoro-5-methyl-5a,6,7,8,9,10-hexahydro-5H-4-oxa-3,10a,11,13,14-pentaaza-6,9-methanonaphtho[1,8-ab]heptalen-2-yl)-5-methyl-4-(trifluoromethyl)aniline]",0.18 nM,4.55 nM
"Cc1c(F)c(N)cc(-c2nc3c4c(nc(OC[C@@]56CCCN5C[C@H](F)C6)nc4c2F)N2C[C@H]4CC[C@H](N4)[C@H]2CO3)c1C(F)(F)F [Compound 61, 2-Fluoro-5-((5aS,6S,9R)-1-fluoro-12-(((2R,7aS)-2-fluorotetrahydro-1H-pyrrolizin-7a(5H)-yl)methoxy)-5a,6,7,8,9,10-hexahydro-5H-4-oxa-3,10a,11,13,14-pentaaza-6,9-methanonaphtho[1,8-ab]heptalen-2-yl)-3-methyl-4-(trifluoromethyl)aniline]",0.21 nM,30.5 nM
"Cc1c(F)c(N)cc(-c2nc3c4c(nc(OC[C@@]56CCCN5CC5(CC5(F)F)C6)nc4c2F)N2C[C@H]4CC[C@H](N4)[C@H]2[C@H](C)O3)c1C(F)(F)F (stereo partly drawn) [Compound 62, 5-((5S,5aS,6S,9R)-12-(((7a'S)-2,2-Difluorodihydro-1′H,3′H-spiro[cyclopropane-1,2′-pyrrolizin]-7a′(5′H)-yl)methoxy)-1-fluoro-5-methyl-5a,6,7,8,9,10-hexahydro-5H-4-oxa-3,10a,11,13,14-pentaaza[6,9]methanonaphtho[1,8-ab]heptalen-2-yl)-2-fluoro-3-methyl-4-(trifluoromethyl)aniline]",0.083 nM,0.29 nM
"Cc1c(F)c(N)cc(-c2nc3c4c(nc(OC[C@@]56CCCN5C/C(=C\F)C6)nc4c2F)N2C[C@H]4CC[C@H](N4)[C@H]2[C@H](C)O3)c1C(F)(F)F [Compound 64, 2-fluoro-5-((5S,5aS,6S,9R)-1-fluoro-12-(((S,Z)-2-(fluoromethylene)tetrahydro-1H-pyrrolizin-7a(5H)-yl)methoxy)-5-methyl-5a,6,7,8,9,10-hexahydro-5H-4-oxa-3,10a,11,13,14-pentaaza-6,9-methanonaphtho[1,8-ab]heptalen-2-yl)-3-methyl-4-(trifluoromethyl)aniline]",0.12 nM,0.738 nM
"Cc1c(F)c(N)cc(-c2nc3c4c(nc(OC[C@@H]5CC(F)(F)CN5C)nc4c2F)N2C[C@H]4CC[C@H](N4)[C@H]2[C@H](C)O3)c1C(F)(F)F [Compound 65, 5-((5S,5aS,6S,9R)-12-(((S)-4,4-Difluoro-1-methylpyrrolidin-2-yl)methoxy)-1-fluoro-5-methyl-5a,6,7,8,9,10-hexahydro-5H-4-oxa-3,10a,11,13,14-pentaaza-6,9-methanonaphtho[1,8-ab]heptalen-2-yl)-2-fluoro-3-methyl-4-(trifluoromethyl)aniline]",1.72 nM,377 nM
"Cc1c(F)c(N)cc(-c2nc3c4c(nc(OC[C@H]5CC(F)(F)CN5C)nc4c2F)N2C[C@H]4CC[C@H](N4)[C@H]2[C@H](C)O3)c1C(F)(F)F [Compound 66, 5-((5S,5aS,6S,9R)-12-(((R)-4,4-difluoro-1-methylpyrrolidin-2-yl)methoxy)-1-fluoro-5-methyl-5a,6,7,8,9,10-hexahydro-5H-4-oxa-3,10a,11,13,14-pentaaza-6,9-methanonaphtho[1,8-ab]heptalen-2-yl)-2-fluoro-3-methyl-4-(trifluoromethyl)aniline]",2.29 nM,274 nM
"Cc1cc(N)cc(-c2nc3c4c(nc(OC[C@@H]5CC[C@H]6COCCN65)nc4c2F)N2C[C@H]4CC[C@H](N4)[C@H]2[C@H](C)O3)c1C(F)(F)F [Compound 67, 3-((5S,5aS,6S,9R)-1-Fuoro-1-(((6S,8aS)-hexahydro-1H-pyrrolo[2,1-c][1,4]oxazin-6-yl)methoxy)-5-methyl-5a,6,7,8,9,10-hexahydro-5H-4-oxa-3,10a,11,13,14-pentaaza-6,9-methanonaphtho[1,8-ab]heptalen-2-yl)-5-methyl-4-(trifluoromethyl)aniline]",0.17 nM,7.53 nM
"Cc1cc(N)cc(-c2nc3c4c(nc(OC[C@@]56CCCN5CC5(CC5(F)F)C6)nc4c2F)N2C[C@H]4CC[C@H](N4)[C@H]2[C@H](C)O3)c1C(F)(F)F (stereo partly drawn) [Compound 68, 3-((5S,5aS,6S,9R)-12-(((7a′S)-2,2-Difluorodihydro-1′H,3′H-spiro[cyclopropane-1,2′-pyrrolizin]-7a′(5′H)-yl)methoxy)-1-fluoro-5-methyl-5a,6,7,8,9,10-hexahydro-5H-4-oxa-3,10a,11,13,14-pentaaza[6,9]methanonaphtho[1,8-ab]heptalen-2-yl)-5-methyl-4-(trifluoromethyl)aniline]",0.07 nM,0.112 nM
